Values quoted from earlier work, collected in PMC9405123, “Design, Synthesis and Mechanistic Studies of Novel Isatin-Pyrazole Hydrazone Conjugates as Selective and Potent Bacterial MetAP Inhibitors” (Antibiotics, 2022).
Values after ≈ are worked out from the molar mass of the structure shown.

Test system: Staphylococcus aureus
Settings: cited from earlier work

| Structure (SMILES) | MIC |
| --- | --- |
| O=C1Nc2ccc(Cl)cc2/C1=N/NC(=O)c1ccc(N2C(=O)/C(=C\c3ccccc3)N=C2c2ccccc2)cc1 [B] | 12 µg/mL (≈ 22 µM) |
| COc1ccc([C@]2(C)[C@@H](Cl)C(=O)N2NC(=O)c2cc(-c3ccc(Cl)cc3)n[nH]2)cc1 [C] | 0.0025 µg/mL (≈ 0.00561 µM) |
| Cn1nc(C(=O)NC(=O)Nc2ccccc2)c(C(=O)c2ccccc2)c1-c1ccccc1 [D] | 310 µg/mL (≈ 730 µM) |
